Results filed as inconclusive are left out.
System: BDF1 mice, colon carcinoma 38 sc, T/C %
Experiment: NCI In Vivo Anticancer Drug Screen. Data for tumor model Colon Carcinoma 38 (subcutaneous) in B6D2F1 (BDF1) mice
Procedure, shortened: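 Mice with transplanted tumors are treated with compound or vehicle. Survival or tumor size is then measured in both groups. The ratio of treated to control gives the reported figure.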

[1] = endpoint: median tumor weight (est.), dose: 50.0 mg/kg/injection, schedule: Q07DX002 (ip), vehicle: Klucel (hydroxypropylcellulose) (HPC), higher = larger tumour
[2] = endpoint: median tumor weight (est.), dose: 25.0 mg/kg/injection, schedule: Q07DX002 (ip), vehicle: saline, higher = larger tumour
[3] = endpoint: median tumor weight (est.), dose: 50.0 mg/kg/injection, schedule: Q07DX002 (ip), vehicle: saline, higher = larger tumour
[4] = endpoint: median tumor weight (est.), dose: 100.0 mg/kg/injection, schedule: Q07DX002 (ip), vehicle: saline, higher = larger tumour
[5] = endpoint: median tumor weight (est.), dose: 200.0 mg/kg/injection, schedule: Q07DX002 (ip), vehicle: saline, higher = larger tumour
[6] = endpoint: median tumor weight (est.), dose: 3.0 mg/kg/injection, schedule: Q07DX002 (ip), vehicle: saline with Tween-80, higher = larger tumour

Structure (SMILES): CCN(CC)CCOC(=O)Cc1cccc2c(=O)cc(-c3ccccc3)oc12
- T/C (endpoint: median survival time, dose: 133.0 mg/kg/injection, schedule: Q07DX002 (ip), vehicle: saline, higher = longer survival): 110 % of control
- T/C (endpoint: median survival time, dose: 200.0 mg/kg/injection, schedule: Q07DX002 (ip), vehicle: saline, higher = longer survival): 313 % of control
- T/C (endpoint: median tumor weight (est.), dose: 3.12 mg/kg/injection, schedule: Q07DX002 (iv), vehicle: saline, higher = larger tumour): 92 % of control
- T/C (endpoint: median tumor weight (est.), dose: 6.25 mg/kg/injection, schedule: Q07DX002 (ip), vehicle: saline, higher = larger tumour): 74 % of control
- T/C (endpoint: median tumor weight (est.), dose: 6.25 mg/kg/injection, schedule: Q07DX002 (iv), vehicle: saline, higher = larger tumour): 88 % of control
- T/C (endpoint: median tumor weight (est.), dose: 12.5 mg/kg/injection, schedule: Q07DX002 (iv), vehicle: saline, higher = larger tumour): 109 % of control
- T/C (endpoint: median tumor weight (est.), dose: 25.0 mg/kg/injection, schedule: Q07DX002 (iv), vehicle: saline, higher = larger tumour): 46 % of control
- T/C (endpoint: median tumor weight (est.), dose: 28.0 mg/kg/injection, schedule: Q07DX002 (iv), vehicle: saline, higher = larger tumour): 122 % of control
- T/C (endpoint: median tumor weight (est.), dose: 37.5 mg/kg/injection, schedule: Q07DX002 (iv), vehicle: saline, higher = larger tumour): 110 % of control
- T/C [1]: 61 % of control
- T/C (endpoint: median tumor weight (est.), dose: 50.0 mg/kg/injection, schedule: Q07DX002 (ip), vehicle: saline with Tween-80, higher = larger tumour): 45 % of control
- T/C (endpoint: median tumor weight (est.), dose: 50.0 mg/kg/injection, schedule: Q07DX009 (ip), vehicle: saline, higher = larger tumour): 84 % of control
- T/C (endpoint: median tumor weight (est.), dose: 100.0 mg/kg/injection, schedule: Q07DX002 (ip), vehicle: saline with Tween-80, higher = larger tumour): 61 % of control
- T/C (endpoint: median tumor weight (est.), dose: 100.0 mg/kg/injection, schedule: Q07DX009 (ip), vehicle: saline, higher = larger tumour): 40 % of control
- T/C (endpoint: median tumor weight (est.), dose: 112.0 mg/kg/injection, schedule: Q07DX002 (ip), vehicle: saline, higher = larger tumour): 105 % of control
- T/C (endpoint: median tumor weight (est.), dose: 150.0 mg/kg/injection, schedule: Q07DX002 (ip), vehicle: saline, higher = larger tumour): 89 % of control

Structure (SMILES): C[Si](C)(C)O/C=C1/CCOC1=O
- T/C [2]: 84 % of control
- T/C [3]: 86 % of control
- T/C [4]: 84 % of control
- T/C [5]: 95 % of control
- T/C (endpoint: median tumor weight (est.), dose: 400.0 mg/kg/injection, schedule: Q07DX002 (ip), vehicle: saline, higher = larger tumour): 105 % of control
- T/C (endpoint: median tumor weight (est.), dose: 800.0 mg/kg/injection, schedule: Q07DX002 (ip), vehicle: saline, higher = larger tumour): 78 % of control

Structure (SMILES): CCC(C(=O)O)C(=O)O.[NH-]CC1CCCC[N-]1.[Pt+2]
- T/C [2]: 305 % of control
- T/C [3]: 404 % of control
- T/C [4]: 209 % of control
- T/C [5]: 239 % of control

Structure (SMILES): CC(C)CCC[C@@H](C)[C@H]1CC[C@H]2[C@@H]3CC=C4C[C@@H](OC(=O)Cc5ccc(N(CCCl)CCCl)cc5)CC[C@]4(C)[C@H]3CC[C@]12C
- T/C (endpoint: median tumor weight (est.), dose: 25.0 mg/kg/injection, schedule: Q07DX002 (ip), vehicle: Klucel (hydroxypropylcellulose) (HPC), higher = larger tumour): 85 % of control
- T/C [1]: 111 % of control
- T/C (endpoint: median tumor weight (est.), dose: 100.0 mg/kg/injection, schedule: Q07DX002 (ip), vehicle: Klucel (hydroxypropylcellulose) (HPC), higher = larger tumour): 103 % of control
- T/C (endpoint: median tumor weight (est.), dose: 200.0 mg/kg/injection, schedule: Q07DX002 (ip), vehicle: Klucel (hydroxypropylcellulose) (HPC), higher = larger tumour): 103 % of control
- T/C (endpoint: median tumor weight (est.), dose: 400.0 mg/kg/injection, schedule: Q07DX002 (ip), vehicle: Klucel (hydroxypropylcellulose) (HPC), higher = larger tumour): 77 % of control
- T/C (endpoint: median tumor weight (est.), dose: 800.0 mg/kg/injection, schedule: Q07DX002 (ip), vehicle: Klucel (hydroxypropylcellulose) (HPC), higher = larger tumour): 82 % of control

Structure (SMILES): CC(=O)O[C@H]1C(=O)[C@@]2(C)[C@H]([C@H](OC(=O)c3ccccc3)[C@]3(O)C[C@H](OC(=O)[C@H](O)[C@@H](NC(=O)c4ccccc4)c4ccccc4)C(C)=C1C3(C)C)[C@]1(OC(C)=O)CO[C@@H]1C[C@@H]2O
- T/C (endpoint: median tumor weight (est.), dose: 7.5 mg/kg/injection, schedule: Q07DX002 (ip), vehicle: Klucel (hydroxypropylcellulose) (HPC), higher = larger tumour): 69 % of control
- T/C (endpoint: median tumor weight (est.), dose: 30.0 mg/kg/injection, schedule: Q07DX002 (ip), vehicle: Klucel (hydroxypropylcellulose) (HPC), higher = larger tumour): 88 % of control
- T/C (endpoint: median tumor weight (est.), dose: 60.0 mg/kg/injection, schedule: Q07DX002 (ip), vehicle: Klucel (hydroxypropylcellulose) (HPC), higher = larger tumour): 106 % of control

Structure (SMILES): C=C(C)/C([O-])=N/[N+](C)(C)CC(O)CCCCCCCCCCCC (configuration not stated)
- T/C (endpoint: median tumor weight (est.), dose: 25.0 mg/kg/injection, schedule: Q01DX001 (ip), vehicle: saline, higher = larger tumour): 105 % of control
- T/C (endpoint: median tumor weight (est.), dose: 50.0 mg/kg/injection, schedule: Q01DX001 (ip), vehicle: saline, higher = larger tumour): 100 % of control
- T/C (endpoint: median tumor weight (est.), dose: 100.0 mg/kg/injection, schedule: Q01DX001 (ip), vehicle: saline, higher = larger tumour): 109 % of control
- T/C (endpoint: median tumor weight (est.), dose: 200.0 mg/kg/injection, schedule: Q01DX001 (ip), vehicle: saline, higher = larger tumour): 108 % of control
- T/C (endpoint: median tumor weight (est.), dose: 400.0 mg/kg/injection, schedule: Q01DX001 (ip), vehicle: saline, higher = larger tumour): 156 % of control

Structure (SMILES): CC[C@@]1(O)C(=O)OCc2c1cc1n(c2=O)Cc2cc3ccccc3nc2-1
- T/C (endpoint: median tumor weight (est.), dose: 1.5 mg/kg/injection, schedule: Q07DX002 (ip), vehicle: saline with Tween-80, higher = larger tumour): 100 % of control
- T/C [6]: 92 % of control
- T/C (endpoint: median tumor weight (est.), dose: 6.0 mg/kg/injection, schedule: Q07DX002 (ip), vehicle: saline with Tween-80, higher = larger tumour): 75 % of control
- T/C (endpoint: median tumor weight (est.), dose: 12.0 mg/kg/injection, schedule: Q07DX002 (ip), vehicle: saline with Tween-80, higher = larger tumour): 90 % of control
- T/C (endpoint: median tumor weight (est.), dose: 24.0 mg/kg/injection, schedule: Q07DX002 (ip), vehicle: saline with Tween-80, higher = larger tumour): 95 % of control

Structure (SMILES): CN=C(N)N/N=C(\C)c1ccc2c(c1)Cc1cc(/C(C)=N/NC(N)=NC)ccc1-2
- T/C (endpoint: median tumor weight (est.), dose: 0.75 mg/kg/injection, schedule: Q07DX002 (ip), vehicle: saline with Tween-80, higher = larger tumour): 104 % of control
- T/C [6]: 115 % of control
